Read-outs that look alike come from different tables or passages of the source.
How the values were obtained:
[1] = target: DNA-PK (Homo sapiens (Human), UniProt P78527); experiment: DNA-PK assay (biochemical), flashplate 33P-ATP kinase assay; conditions: enzymatic; 5 μM ATP
Method in brief: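 Reactions ran in streptavidin-coated flashplates and were halted by 200 mM EDTA, with a further 30 min at room temperature before saline washing.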

[2] = target: DNA-PK phosphorylation at serine 2056 (Homo sapiens (Human), UniProt P78527); experiment: DNA-PK phosphorylation at serine 2056 (cellular), bleomycin-treated HCT116 cells, ELISA; assay type: cell-based; conditions: cellular; HCT116 cells, 10 μM bleomycin, six hours; read-out: IC50 pDNA-PK
Method in brief: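 HCT116, MEM alpha + 10% FCS, 37 °C/10% CO2, seeded o/n. Cpd + 10 μM bleomycin, 6 h. ELISA, chemiluminescence; phospho/total DNA-PKcs ratio, DMSO = blank.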

[3] = target: Kv11.1 (hERG) (Homo sapiens (Human), UniProt Q12809); experiment: Kv11.1 (hERG) ion channel activity (patch clamp assay), HEK293 cells transfected with hERG gene; conditions: patch clamp, HEK293 transfected with hERG gene
Kv11.1 (hERG), sequence (Q12809 whole entry): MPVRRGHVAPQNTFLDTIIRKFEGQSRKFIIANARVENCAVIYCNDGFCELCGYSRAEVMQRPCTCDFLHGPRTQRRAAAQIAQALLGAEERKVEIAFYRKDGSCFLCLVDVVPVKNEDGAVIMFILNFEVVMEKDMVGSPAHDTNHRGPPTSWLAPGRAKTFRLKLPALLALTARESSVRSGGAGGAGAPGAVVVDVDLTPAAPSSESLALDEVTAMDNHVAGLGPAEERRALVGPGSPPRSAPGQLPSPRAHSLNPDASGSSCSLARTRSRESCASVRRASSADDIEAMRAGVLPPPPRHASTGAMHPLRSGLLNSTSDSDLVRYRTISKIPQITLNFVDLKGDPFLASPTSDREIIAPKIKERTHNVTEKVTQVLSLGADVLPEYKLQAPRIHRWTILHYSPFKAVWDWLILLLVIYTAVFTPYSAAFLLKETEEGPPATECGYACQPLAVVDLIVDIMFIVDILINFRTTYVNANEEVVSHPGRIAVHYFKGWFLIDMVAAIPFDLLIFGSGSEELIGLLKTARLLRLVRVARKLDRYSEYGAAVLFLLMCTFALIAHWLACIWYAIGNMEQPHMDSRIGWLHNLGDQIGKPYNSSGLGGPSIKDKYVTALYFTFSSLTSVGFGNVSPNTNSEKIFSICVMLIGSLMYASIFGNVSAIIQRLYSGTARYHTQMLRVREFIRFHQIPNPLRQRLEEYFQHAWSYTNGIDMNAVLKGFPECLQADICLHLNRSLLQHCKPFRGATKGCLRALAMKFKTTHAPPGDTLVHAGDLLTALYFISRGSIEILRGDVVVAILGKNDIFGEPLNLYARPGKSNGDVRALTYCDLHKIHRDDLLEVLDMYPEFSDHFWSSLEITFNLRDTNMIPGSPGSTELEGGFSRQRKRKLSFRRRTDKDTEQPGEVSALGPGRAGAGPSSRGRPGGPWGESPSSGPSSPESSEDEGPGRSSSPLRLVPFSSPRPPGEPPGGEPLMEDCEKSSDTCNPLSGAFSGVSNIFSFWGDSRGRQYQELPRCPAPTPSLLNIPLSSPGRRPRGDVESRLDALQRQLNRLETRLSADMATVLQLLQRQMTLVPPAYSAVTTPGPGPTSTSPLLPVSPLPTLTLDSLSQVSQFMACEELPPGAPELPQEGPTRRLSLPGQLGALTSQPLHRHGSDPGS
Protocol: C) Kv11.1 (hERG) Ion Channel Activity (Patch Clamp Assay)
The patch-clamp measurement was carried out at room temperature in whole-cell configuration on human embryonic kidney cells (HEK293) which have been transfected in a stable manner with the hERG gene.
The whole-cell configurations were carried out using an automated patch clamp device (Patchliner™, Nanion Technologies, Munich). […] The glass chip has a hole of defined size to which the cell is transferred into the Gigaseal by application of a reduced pressure and brought into the whole-cell configuration. Buffer, cell suspension and test substances were added to microchannels of the chip using a Teflon-coated pipette. The cells were clamped to a holding potential of −80 mV. For measurement of substance-promoted inhibition of the Kv11.1 channel, the following voltage protocol was applied at 10-second intervals: 51 ms/−80 mV, 500 ms/+40 mV, 500 ms/−40 mV, 200 ms/−80 mV. The leakage current is subtracted by means of the P4 method. The cells were resuspended in extracellular buffer (EC) and applied to the chip. After the cell had been collected, the seal was improved by addition of a seal enhancer buffer. As soon as the whole-cell configuration had been reached, the seal enhancer buffer was washed out and replaced by extracellular buffer. The measurement started in EC for 1.5 min. DMSO (vehicle control, 0.1% of DMSO) was then applied, and the control current was recorded for 3 min. The test substance was subsequently added twice in the same concentration, and the potassium current was measured for 3.5 min in each case.
The reference substance used was the Kv11.1 (hERG) ion channel blocker quinidine. The effects of test substances and quinidine were standardised to the associated vehicle control. The effect on the Kv11.1 (hERG) channel activity was assessed from the potassium current at −40 mV. For the calculation, the current was evaluated for the respective final trace.
During the measurement, an aliquot of the test substance was taken for concentration determination. The sample was measured immediately by HPLC, and the final concentration was determined from a calibration curve.

Row | Structure (SMILES) | IC50 [1] [µM] | IC50 [2] [µM] | Ki ([3]; Ki [Kv1.11 hERG]) [µM] | Ki ([3]; read-out: Ki [Kv1.11 hERG]) [µM]
1 | COc1nccnc1C(O)c1ccc(F)c(-c2ncnc3cc(N4CCOCC4)ccc23)c1 (stereo not drawn) [Example 15, [4-Fluoro-3-(7-morpholin-4-yl-quinazolin-4-yl)phenyl]-(3-methoxy-pyrazin-2-yl)methanol] | < 0.003 | < 0.5 | 15 to 25 | –
2 | COc1nccnc1C(O)c1ccc(F)c(-c2ncnc3cc(N4CCOCC4)ccc23)c1 (stereo not drawn) [Example 16, [4-Fluoro-3-(7-morpholin-4-yl-quinazolin-4-yl)phenyl]-(3-methoxy-pyrazin-2-yl)methanol] | 0.007 to 0.03 | 0.5 to 5 | – | > 25
3 | OC(c1ccc(F)c(-c2ncnc3cc(N4CCOCC4)ccc23)c1)c1c(Cl)cncc1Cl (stereo not drawn) [Example 17, (3,5-Dichloro-pyridin-4-yl)-[4-Fluoro-3-(7-morpholin-4-yl-quinazolin-4-yl)phenyl]-methanol] | 0.003 to 0.007 | 0.5 to 5 | 10 to 15 | –
4 | COc1ccnnc1C(O)c1ccc(F)c(-c2ncnc3cc(N4CCOCC4)ccc23)c1 (stereo not drawn) [Example 18, [4-Fluoro-3-(7-morpholin-4-yl-quinazolin-4-yl)phenyl]-(4-methoxy-pyridazin-3-yl)methanol] | < 0.003 | 0.5 to 5 | 15 to 25 | –
5 | COc1cnc(Cl)c(C(O)c2ccc(F)c(-c3ncnc4cc(N5CCOCC5)ccc34)c2)c1 (stereo not drawn) [Example 22, (2-Chloro-5-methoxy-pyridin-3-yl)-[4-fluoro-3-(7-morpholin-4-yl-quinazolin-4-yl)phenyl]-methanol] | < 0.003 | < 0.5 | – | < 10
6 | COc1ncc(Cl)nc1C(O)c1ccc(F)c(-c2ncnc3cc(N4CCOCC4)ccc23)c1 (stereo not drawn) [Example 25, (6-Chloro-3-methoxy-pyrazin-2-yl)-[4-fluoro-3-(7-morpholin-4-yl-quinazolin-4-yl)phenyl]-methanol] | 0.003 to 0.007 | < 0.5 | – | < 10
7 | COc1cnc(Cl)c(C(O)c2ccc(F)c(-c3ncnc4cc(N5CCOCC5)ccc34)c2)n1 (stereo not drawn) [Example 26, (3-Chloro-6-methoxy-pyrazin-2-yl)-[4-fluoro-3-(7-morpholin-4-yl-quinazolin-4-yl)phenyl]-methanol] | < 0.003 | < 0.5 | – | > 25
8 | O[C@H](c1ccc(F)c(-c2ncnc3cc(N4CCOCC4)ccc23)c1)c1nccnc1Cl [Example 27, (R)-(3-Chloro-pyrazin-2-yl)-[4-fluoro-3-(7-morpholin-4-yl-quinazolin-4-yl)phenyl]-methanol] | < 0.003 | < 0.5 | – | > 25
9 | O[C@@H](c1ccc(F)c(-c2ncnc3cc(N4CCOCC4)ccc23)c1)c1nccnc1Cl [Example 28, (S)-(3-Chloro-pyrazin-2-yl)-[4-fluoro-3-(7-morpholin-4-yl-quinazolin-4-yl)phenyl]-methanol] | 0.007 to 0.03 | 5 to 10 | 15 to 25 | –
10 | COc1cnc(C(O)c2ccc(F)c(-c3ncnc4cc(N5CCOCC5)ccc34)c2)c(Cl)c1 (stereo not drawn) [Example 31, (3-Chloro-5-methoxy-pyridin-2-yl)-[4-fluoro-3-(7-morpholin-4-yl-quinazolin-4-yl)phenyl]-methanol] | < 0.003 | < 0.5 | 10 to 15 | –
11 | OC(c1ccc(F)c(-c2ncnc3cc(N4CCOCC4)ccc23)c1)c1nccnc1OC1COC1 (stereo not drawn) [Example 32, [4-fluoro-3-(7-morpholin-4-yl-quinazolin-4-yl)phenyl]-[3-(oxetan-3-yloxy)-pyrazin-2-yl]methanol] | 0.007 to 0.03 | 5 to 10 | 15 to 25 | –
12 | OC(c1ccc(F)c(-c2ncnc3cc(N4CCOCC4)ccc23)c1)c1cnccn1 (stereo not drawn) [Example 33, [4-Fluoro-3-(7-morpholin-4-yl-quinazolin-4-yl)phenyl]-pyrazin-2-ylmethanol] | 0.007 to 0.03 | 10 to 30 | – | < 10
13 | OC(c1cnccn1)c1cc(-c2ncnc3cc(N4CCOCC4)ccc23)c(F)cc1Cl (stereo not drawn) [Example 34, [2-Chloro-4-fluoro-5-(7-morpholin-4-yl-quinazolin-4-yl)phenyl]-pyrazin-2-ylmethanol] | 0.007 to 0.03 | 5 to 10 | 15 to 25 | –
14 | OC(c1ccc(F)c(-c2ncnc3cc(N4CCOCC4)ccc23)c1)c1nc(Cl)cnc1Cl (stereo not drawn) [Example 35, (3,6-Dichloro-pyrazin-2-yl)-[4-fluoro-3-(7-morpholin-4-yl-quinazolin-4-yl)phenyl]-methanol] | < 0.003 | < 0.5 | 10 to 15 | –
15 | OC(c1ccnnc1)c1cc(-c2ncnc3cc(N4CCOCC4)ccc23)c(F)cc1Cl (stereo not drawn) [Example 36, [2-Chloro-4-fluoro-5-(7-morpholin-4-yl-quinazolin-4-yl)phenyl]-pyridazin-4-ylmethanol] | < 0.003 | < 0.5 | – | > 25
16 | OC(c1ccc(F)c(-c2ncnc3cc(N4CCOCC4)sc23)c1)c1nccnc1Cl (stereo not drawn) [Example 37, (3-Chloropyrazin-2-yl)-[4-fluoro-3-(6-morpholin-4-ylthieno[3,2-d]pyrimidin-4-yl)phenyl]-methanol] | < 0.003 | < 0.5 | 10 to 15 | –
17 | COc1nccnc1C(O)c1ccc(F)c(-c2ncnc3cc(N4CCOCC4)ccc23)c1 (stereo not drawn) [Example 38, [4-Fluoro-3-(7-morpholin-4-yl-quinazolin-4-yl)phenyl]-(3-methoxy-pyrazin-2-yl)methanol] | < 0.003 | < 0.5 | – | > 25
18 | OC(c1ccn2nccc2n1)c1cc(-c2ncnc3cc(N4CCOCC4)ccc23)c(F)cc1Cl (stereo not drawn) [Example 39, [2-Chloro-4-fluoro-5-(7-morpholin-4-yl-quinazolin-4-yl)phenyl]-pyrazolo[1,5-a]-pyrimidin-5-ylmethanol] | 0.003 to 0.007 | < 0.5 | 15 to 25 | –
19 | COc1nnc(C(O)c2cc(-c3ncnc4cc(N5CCOCC5)ccc34)c(F)cc2Cl)c2ccncc12 (stereo not drawn) [Example 40, [2-Chloro-4-fluoro-5-(7-morpholin-4-yl-quinazolin-4-yl)phenyl]-(4-methoxypyrido-[3,4-d}pyridazin-1-yl)-methanol] | 0.007 to 0.03 | 0.5 to 5 | 10 to 15 | –
20 | OC(c1ccc(Cl)nn1)c1cc(-c2ncnc3cc(N4CCOCC4)ccc23)c(F)cc1Cl (stereo not drawn) [Example 41, [2-Chloro-4-fluoro-5-(7-morpholin-4-yl-quinazolin-4-yl)phenyl]-(6-chloro-pyridazin-3-yl)methanol] | 0.003 to 0.007 | < 0.5 | 15 to 25 | –
21 | OC(c1ccc(F)c(-c2ncnc3cc(N4CCOCC4)ccc23)c1)c1ncccc1Cl (stereo not drawn) [Example 42, (3-Chloro-pyridin-2-yl)-[4-fluoro-3-(7-morpholin-4-yl-quinazolin-4-yl)phenyl]-methanol] | < 0.003 | < 0.5 | 15 to 25 | –
22 | CNC(=O)c1ccc(C(O)c2cc(-c3ncnc4cc(N5CCOCC5)ccc34)c(F)cc2Cl)nn1 (stereo not drawn) [Example 43, 6-{[2-Chloro-4-fluoro-5-(7-morpholin-4-yl-quinazolin-4-yl)phenyl]-hydroxymethyl}-pyridazine-3-carboxylic acid methylamide] | 0.003 to 0.007 | 0.5 to 5 | – | > 25
23 | Cc1cnnc(C(O)c2cc(-c3ncnc4cc(N5CCOCC5)ccc34)c(F)cc2Cl)c1 (stereo not drawn) [Example 46, [2-Chloro-4-fluoro-5-(7-morpholin-4-yl-quinazolin-4-yl)phenyl]-(5-methylpyridazin-3-yl)methanol] | 0.007 to 0.03 | 5 to 10 | 15 to 25 | –
24 | OC(c1cccnn1)c1cc(-c2ncnc3cc(N4CCOCC4)ccc23)c(F)cc1Cl (stereo not drawn) [Example 47, [2-Chloro-4-fluoro-5-(7-morpholin-4-yl-quinazolin-4-yl)phenyl]-pyridazin-3-ylmethanol] | 0.003 to 0.007 | < 0.5 | – | > 25
25 | OC(c1cccnn1)c1cc(-c2ncnc3cc(N4CCOCC4)ccc23)c(F)cc1F (stereo not drawn) [Example 48, [2,4-Difluoro-5-(7-morpholin-4-yl-quinazolin-4-yl)phenyl]-pyridazin-3-ylmethanol] | 0.003 to 0.007 | 0.5 to 5 | 15 to 25 | –
26 | OC(c1ccc(Cl)nn1)c1cc(-c2ncnc3cc(N4CCOCC4)ccc23)c(F)cc1F (stereo not drawn) [Example 49, (6-Chloro-pyridazin-3-yl)-[2,4-difluoro-5-(7-morpholin-4-yl-quinazolin-4-yl)phenyl]-methanol] | < 0.003 | 0.5 to 5 | – | > 25
27 | CN(C)C(=O)c1ccc(C(O)c2cc(-c3ncnc4cc(N5CCOCC5)ccc34)c(F)cc2Cl)nn1 (stereo not drawn) [Example 50, 6-{[2-Chloro-4-fluoro-5-(7-morpholin-4-yl-quinazolin-4-yl)phenyl]-hydroxymethyl}-pyridazine-3-carboxylic acid dimethylamide] | 0.007 to 0.03 | 10 to 30 | – | > 25
28 | OC(c1ccc2nccn2n1)c1cc(-c2ncnc3cc(N4CCOCC4)ccc23)c(F)cc1F (stereo not drawn) [Example 51, [2,4-Difluoro-5-(7-morpholin-4-yl-quinazolin-4-yl)phenyl]-imidazo[1,2-b]pyridazin-6-ylmethanol] | < 0.003 | < 0.5 | 15 to 25 | –
29 | COc1cnc(C(O)c2ccc(F)c(-c3ncnc4cc(N5CCOCC5)ccc34)c2)cn1 (stereo not drawn) [Example 52, [4-Fluoro-3-(7-morpholin-4-yl-quinazolin-4-yl)phenyl]-(5-methoxy-pyrazin-2-yl)methanol] | 0.003 to 0.007 | 5 to 10 | – | > 25
30 | COc1cnc(C(O)c2ccc(F)c(-c3ncnc4cc(N5CCOCC5)ccc34)c2)cn1 (stereo not drawn) [Example 53, [4-Fluoro-3-(7-morpholin-4-yl-quinazolin-4-yl)phenyl]-(5-methoxy-pyrazin-2-yl)methanol] | 0.003 to 0.007 | 5 to 10 | – | > 25
